# Assay results: paper PMC3388044, “Probing of Exosites Leads to Novel Inhibitor Scaffolds of HCV NS3/4A Proteinase” (PLoS ONE, 2012)
# Molecular target: T1, HCV NS3/4A (wild-type) (Hepatitis C virus genotype 1b, UniProt O92972)
# T1 construct: The NS3/4A construct represented the individual NS3 proteinase domain N-terminally fused with an NS4A co-factor; 6xHis; purchased AnaSpec (Fremont, CA)
# Test: NS3/4A activity assay with FRET peptide substrate, wild-type enzyme
# Format: biochemical, HCV genotype 1b, strain HC-J4
# Conditions: Table S1 100-1000; wild-type NS3/4A, FRET peptide substrate; read-out: NS3/4A IC50 range class 100-1000
# Excerpt: Reagents were purchased from Sigma unless indicated otherwise. The FRET substrate Ac-DE-D(Edans)-EE-Abu-ψ-[COO]-AS-K(Dabsyl)-NH2, purified recombinant wild-type NS3/4A from HCV genotype 1b, strain HC-J4, and the mutants with the V36M, R155K, A156T, D168A and V170A resistance mutations were from AnaSpec (Fremont, CA). The NS3/4A construct represented the individual NS3 proteinase domain N-terminally fused with an NS4A co-factor and tagged with a 6xHis tag. NS3/4A was in active form and the pre-activation by pep-4A or pep4AK was not necessary. Pyroglutamic acid-Arg-Thr-Lys-Arg-7-amino-4-methylcoumarin was from Peptides International (Louisville, KY). West Nile virus NS2B-NS3 proteinase (strain NY99) was expressed, purified and refolded to restore its functional activity as described earlier. The pET15b-Den2-CF40-Gly-NS3pro 185 plasmid encoding the Dengue virus type 2 NS2B-NS3 protease was a kind gift of Dr. Subhash Vasudevan (Program in Emerging Infectious Diseases, DUKE-NUS Graduate Medical School, Singapore). DV NS2B-NS3 proteinase was expressed purified and refolded to restore its functional activity as described previously, [70]. The expression of the soluble C-terminally truncated human furin construct in Sf9 insect cells (an ovarian cell line from fall armyworm Spodoptera frugiperda; Invitrogen, Carlsbad, CA) infected with the recombinant baculovirus and purification of soluble furin from the medium were described earlier. Original human hepatocarcinoma Huh7 cells were obtained from ATCC (Manassas, VA).
# The NS3/4A activity assay was performed at 37°C in triplicate in wells of a 96-well plate in 0.2 ml 50 mM HEPES, pH 7.5, containing 100 mM NaCl, 10 mM DTT, 20% glycerol, the Ac-DE-D(Edans)-EE-Abu-ψ-[COO]-AS-K(Dabsyl)-NH2 substrate (10 µM) and the NS3/4A enzyme (10 nM). Reaction velocity was monitored continuously at λex = 355 nm and λem = 500 nm for 10 min using a Spectramax Gemini EM fluorescence spectrophotometer (Molecular Devices, Sunnyvale, CA) and the initial rate of reaction v was recorded for each reaction. There was no significant additional absorption by compounds 1–8 we identified, which might interfere with NS3/4A assay. Compound stock solutions (10 mM) were made in 100% DMSO. Stocks were then diluted using the assay buffer. As a result, the final DMSO concentration was always below 1% in the assay reactions.
# To measure the inhibitory potency of the compounds, their increasing concentrations were pre-incubated with the individual proteinases in the corresponding buffer for 30 min at ambient temperature. At least, 7–9 different concentrations were used for each inhibitor. The residual activity of the enzymes was then measured as above. The IC50 values of the inhibitory compounds were calculated by determining the concentrations of the compounds needed to inhibit 50% of the enzyme activity against the peptide substrate. GraphPad Prism was used as fitting software.
row,Compound,IC50 [µM]
1,Cn1ncc2c(Nc3ccc(O)cc3)nc(Cl)nc21 [Compound 42],100 to 1000
2,CC(C)(CCC#N)c1nc2sc(C(C)(C)CCC#N)nc2s1 [Compound 43],100 to 1000
3,CN(C)CCCNc1nc(-c2cccc(C(Cl)(Cl)Cl)c2)nc(C(Cl)(Cl)Cl)n1 [Compound 44],100 to 1000
4,FC(F)(F)C(F)(F)c1nc2nc(Cl)c(Cl)nc2[nH]1 [Compound 45],100 to 1000
5,Clc1nc2nc3n(c2nc1Cl)CCC3 [Compound 46],100 to 1000
6,CSc1nc2nc(Cl)c(Cl)nc2[nH]1 [Compound 47],100 to 1000
7,FC(F)(F)C1=N/C(=C2\N=C(C(F)(F)F)N=C2Cl)C(Cl)=N1 [Compound 48],100 to 1000
8,CC(CNc1nc(Nc2ccc(Cl)c(Cl)c2)nc(C(Cl)(Cl)Cl)n1)N(C)C (stereo not shown) [Compound 49],100 to 1000
9,NC(=S)/N=C(\c1nc2ccc(Cl)cc2[nH]c1=O)C(O)c1ccccc1Cl (stereo not shown) [Compound 50],100 to 1000
10,OCCOCn1nc(-c2ccccc2)nc1-c1cnccn1 [Compound 51],100 to 1000
11,O=S(=O)(Nc1c(Cl)c(Cl)c(Cl)c(Cl)c1NS(=O)(=O)c1ccccc1)c1ccccc1 [Compound 52],100 to 1000
12,O=[N+]([O-])c1cc([N+](=O)[O-])c2ccccc2c1NS(=O)(=O)c1ccc(Cl)c(Cl)c1Cl [Compound 53],100 to 1000
13,O=C(CCc1nnc2s/c(=C\c3ccccc3[N+](=O)[O-])c(=O)n12)Nc1cc(Cl)c(Cl)cc1Cl [Compound 54],100 to 1000
14,O=C(Nc1ccc(Br)cc1)C(=O)C(C(=O)c1ccc(Cl)c(Cl)c1)C1OC(=O)c2ccccc21 (stereo not shown) [Compound 55],100 to 1000
15,Cc1cccc(C(C)C)c1NC(=O)C(=O)CC(=O)c1sc(Nc2ccccc2Cl)nc1C [Compound 56],100 to 1000
16,CC(=O)Nc1ccc(NC(=O)c2c(Cl)c(Cl)c(Cl)c(Cl)c2-c2nc3ccccc3[nH]2)cc1 [Compound 57],100 to 1000
17,COc1ccc(OC)c(NC(=O)c2c(Cl)c(Cl)c(Cl)c(Cl)c2-c2nc3ccccc3[nH]2)c1 [Compound 58],100 to 1000
18,S=c1[nH]n2c(COc3ccc(OCc4nnc5sc(=S)[nH]n45)c(Cl)c3)nnc2s1 [Compound 59],100 to 1000
19,Cc1cc(S(=O)(=O)Nc2nc3ccsc3c(=O)n2Cc2ccccc2)c(S)cc1Cl [Compound 60],100 to 1000

# Same assay, conditions: Table S1; wild-type NS3/4A, FRET peptide substrate; read-out: NS3/4A IC50 range class 10 -100
row,Compound,IC50 [µM]
1,Cn1ncc2c(Nc3cc(Cl)ccc3Cl)ncnc21 [Compound 12],10 to 100
2,Oc1c(Br)cc(CN(Cc2cc(Br)c(O)c(Br)c2)C2CCCCC2)cc1Br [Compound 13],10 to 100
3,Oc1ccc(C=NCCN=Cc2ccc(O)cc2O)c(O)c1.[Ni] [Compound 14],10 to 100
4,O=C1C=C(Nc2ccc(Cl)cc2Cl)C(=O)C=C1Nc1ccc(Cl)cc1Cl [Compound 15],10 to 100
5,O=C1c2cc(Cl)ccc2-c2ccc(N=Cc3ccc(Cl)c(Cl)c3)cc21 [Compound 16],10 to 100
6,O=C(CCCC(=O)N/N=C/c1ccc(Cl)cc1Cl)N/N=C/c1ccc(Cl)cc1Cl [Compound 17],10 to 100
7,FC(F)(F)c1cccc(-c2nc3nc(Cl)c(Cl)nc3[nH]2)c1 [Compound 18],10 to 100
8,CC(C)N(C(=O)CSc1c(Cl)c(Cl)c(Cl)c(Cl)c1Cl)C(C)C [Compound 19],10 to 100
9,O=C(N/N=C\c1cc(Br)cc(Br)c1O)N/N=C/c1cc(Br)cc(Br)c1O [Compound 20],10 to 100
10,O=C(Nc1ccc(Cl)c(Cl)c1)c1ccc(C(=O)Nc2ccc(Cl)c(Cl)c2)cc1 [Compound 21],10 to 100
11,O=C(O)c1c(Br)c(Br)c(Br)c(Br)c1C(=O)Nc1cc([N+](=O)[O-])ccc1O [Compound 22],10 to 100
12,O=C(CNC(=O)Nc1ccc(Cl)c(Cl)c1)NNC(=O)Nc1ccc(F)c(Cl)c1 [Compound 23],10 to 100
13,O=C(Nc1ccc(Cl)c(Cl)c1)C1C(=O)C(=O)N(c2ccc(Cl)c(Cl)c2)C1=O (stereo not shown) [Compound 24],10 to 100
14,O=C1CS(=O)(=O)CN1c1ccc(Cl)c(Cl)c1 [Compound 25],10 to 100
15,Cc1nn(C(=S)S)c(C)c1N=Nc1cccc(Cl)c1Cl [Compound 26],10 to 100
16,Cc1c(N=Nc2cccc(Cl)c2Cl)c(-c2ccccc2)nn1C(=S)S [Compound 27],10 to 100
17,Cc1nn(C(N)=S)c(C)c1N=Nc1cccc(Cl)c1Cl [Compound 28],10 to 100
18,CSC(=S)n1nc(C)c(N=Nc2cccc(Cl)c2Cl)c1C [Compound 29],10 to 100
19,Brc1ccc2c(ccc3c2nnc2ncnn23)c1 [Compound 30],10 to 100
20,OCC(O)C(O)C(O)c1nn(-c2ccccc2)c2nc3cc(Cl)c(Cl)cc3nc12 (stereo not shown) [Compound 31],10 to 100
21,C(=C\c1ccccc1)/Cn1nc(-c2ccccc2)nc1-c1cnccn1 [Compound 32],10 to 100
22,Cc1cc(S(=O)(=O)Nc2nc3cc(-c4ccc(Cl)cc4)sc3c(=O)n2N)c(S)cc1Cl [Compound 33],10 to 100
23,Sc1ccccc1Nc1nc(SCc2ccccc2)nc2n[nH]c(Cc3nc4ccccc4s3)c12 [Compound 34],10 to 100
24,Clc1ccc(OCc2nn3c(CCCCc4nnc5sc(COc6ccc(Cl)cc6Cl)nn45)nnc3s2)c(Cl)c1 [Compound 35],10 to 100
25,O=S(=O)(Nc1cc(Cl)c(Cl)cc1N=Cc1ccc(N(CCCl)CCCl)cc1F)c1ccccc1 [Compound 36],10 to 100
26,O=[N+]([O-])c1ccc(O)c(C=Nc2cc(Cl)c(Cl)cc2NS(=O)(=O)c2ccccc2)c1 [Compound 37],10 to 100
27,O=S(=O)(Nc1c(Cl)c(Cl)c(NS(=O)(=O)c2ccccc2)c(Cl)c1Cl)c1ccccc1 [Compound 38],10 to 100
28,O=C(Nc1ccc(Cl)c(Cl)c1)C(=O)C(C(=O)c1ccccc1F)C1OC(=O)c2ccccc21 (stereo not shown) [Compound 39],10 to 100
29,Clc1ccc(Nc2nc(SCc3ccccc3)nc3n[nH]c(Cc4nn[nH]n4)c23)cc1 [Compound 40],10 to 100

# Same assay, conditions: wild-type NS3/4A 10 nM, Ac-DE-D(Edans)-EE-Abu-ψ-[COO]-AS-K(Dabsyl)-NH2 10 µM, 30 min pre-incubation; read-out: NS3/4A IC50
row,Compound,IC50 [µM]
1,FC(F)(F)c1nc2nc(Cl)c(Cl)nc2s1 [Compound 9],4.5
2,S=c1[nH]nc(CCCCc2n[nH]c(=S)n2/N=C/c2ccc(Cl)cc2Cl)n1/N=C/c1ccc(Cl)cc1Cl [Compound 10],5.25
3,O=C(c1ccco1)c1c(C(F)(F)F)n([O-])c2cc(Cl)c(Cl)cc2[n+]1=O [Compound 11],6.5

# Test system: HCV replicon (NS3/4A V170A)
# Test: not given
# Conditions: fold change vs WT, mutant HCV replicon; cited from earlier work
row,Compound,V170A FC (replicon)
1,"CC(C)(C)NC(=O)N[C@H](C(=O)N1C[C@H]2[C@@H]([C@H]1C(=O)NC(CC1CCC1)C(=O)C(N)=O)C2(C)C)C(C)(C)C (stereo partly shown) [Boceprevir, boceprevir]",5.8

# Same assay, conditions: mutant HCV replicon with luciferase readout; cited from earlier work
row,Compound,IC50 [µM]
1,"CC(C)(C)NC(=O)N[C@H](C(=O)N1C[C@H]2[C@@H]([C@H]1C(=O)NC(CC1CCC1)C(=O)C(N)=O)C2(C)C)C(C)(C)C (stereo partly shown) [Boceprevir, boceprevir]",1.55

# Test system: HCV replicon (NS3/4A R155K)
# Test: not given
# Conditions: fold change vs WT, mutant HCV replicon; cited from earlier work
row,Compound,R155K FC (replicon)
1,"CC(C)(C)NC(=O)N[C@H](C(=O)N1C[C@H]2[C@@H]([C@H]1C(=O)NC(CC1CCC1)C(=O)C(N)=O)C2(C)C)C(C)(C)C (stereo partly shown) [Boceprevir, boceprevir]",4.7

# Same assay, conditions: mutant HCV replicon with luciferase readout; cited from earlier work
row,Compound,IC50 [µM]
1,"CC(C)(C)NC(=O)N[C@H](C(=O)N1C[C@H]2[C@@H]([C@H]1C(=O)NC(CC1CCC1)C(=O)C(N)=O)C2(C)C)C(C)(C)C (stereo partly shown) [Boceprevir, boceprevir]",0.743

# Test system: HCV replicon (NS3/4A A156T)
# Test: not given
# Conditions: mutant HCV replicon with luciferase readout; cited from earlier work
row,Compound,IC50 [µM]
1,"CC(C)(C)NC(=O)N[C@H](C(=O)N1C[C@H]2[C@@H]([C@H]1C(=O)NC(CC1CCC1)C(=O)C(N)=O)C2(C)C)C(C)(C)C (stereo partly shown) [Boceprevir, boceprevir]",7.23

# Test system: HCV replicon (WT NS3/4A)
# Test: not given
# Conditions: HCV replicon with luciferase readout; cited from earlier work
row,Compound,IC50 [µM]
1,"CC(C)(C)NC(=O)N[C@H](C(=O)N1C[C@H]2[C@@H]([C@H]1C(=O)NC(CC1CCC1)C(=O)C(N)=O)C2(C)C)C(C)(C)C (stereo partly shown) [Boceprevir, boceprevir]",0.148

# Test system: HCV replicon (NS3/4A V36M)
# Test: not given
# Conditions: fold change vs WT, mutant HCV replicon; cited from earlier work
row,Compound,V36M FC (replicon)
1,"CC(C)(C)NC(=O)N[C@H](C(=O)N1C[C@H]2[C@@H]([C@H]1C(=O)NC(CC1CCC1)C(=O)C(N)=O)C2(C)C)C(C)(C)C (stereo partly shown) [Boceprevir, boceprevir]",1.8

# Same assay, conditions: mutant HCV replicon with luciferase readout; cited from earlier work
row,Compound,IC50 [µM]
1,"CC(C)(C)NC(=O)N[C@H](C(=O)N1C[C@H]2[C@@H]([C@H]1C(=O)NC(CC1CCC1)C(=O)C(N)=O)C2(C)C)C(C)(C)C (stereo partly shown) [Boceprevir, boceprevir]",0.217

# Test system: HCV replicon (NS3/4A D168A)
# Test: not given
# Conditions: fold change vs WT, mutant HCV replicon; cited from earlier work
row,Compound,D168A FC (replicon)
1,"CC(C)(C)NC(=O)N[C@H](C(=O)N1C[C@H]2[C@@H]([C@H]1C(=O)NC(CC1CCC1)C(=O)C(N)=O)C2(C)C)C(C)(C)C (stereo partly shown) [Boceprevir, boceprevir]",0.7

# Same assay, conditions: mutant HCV replicon with luciferase readout; cited from earlier work
row,Compound,IC50 [µM]
1,"CC(C)(C)NC(=O)N[C@H](C(=O)N1C[C@H]2[C@@H]([C@H]1C(=O)NC(CC1CCC1)C(=O)C(N)=O)C2(C)C)C(C)(C)C (stereo partly shown) [Boceprevir, boceprevir]",0.1
